Read-outs that look alike come from different tables or passages of the source.
Tested on: primary rat mixed cortical cells
Experiment: In vitro myelination assay (MBP positive myelin strands, fold myelin pixels above background)
Format: cell-based
Settings: Rattus norvegicus; for fold induction at 1 µM: 1.0 μM compound; for fold induction at 10 µM: 10.0 μM compound
Procedure, shortened: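 P1 rat cortical cells (neurons, OPCs, oligodendrocytes, astrocytes, microglia) were cultured 14 days at 37 °C with compound, with half-medium changes containing 1× compound on days 6 and 10. Fixed cells were immunostained for MBP and imaged at 10×. Total MBP myelin pixels per well were expressed as fold above no-compound baseline at 1.0 μM and 10.0 μM.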

[1] = relative to baseline of no added compound, read-out: Fold myelin pixels above background
[2] = read-out: Fold myelin pixels above background relative to baseline of no added compound
[3] = relative to baseline of no added compound, read-out: Fold myelin pixels above background, 1.0 μM
[4] = relative to baseline of no added compound, read-out: Fold myelin pixels above background, 10.0 μM

Structure (SMILES)	fold induction at 1 µM [1]	fold induction at 10 µM [1]	fold induction at 1 µM [2]	fold induction at 10 µM [2]	also measured
Cc1cc(Nc2ncn(-c3ccccc3)n2)cc(O[C@@H]2CCN(C3COC3)C2)c1 [Compound 391, N-[3-methyl-5-[(3R)-1-(oxetan-3-yl)pyrrolidin-3-yl]oxy-phenyl]-1-phenyl-1,2,4-triazol-3-amine]	1000 to 10000	100 to 1000	–	–	–
Cc1cc(Nc2ncn(-c3cc(F)cc(F)c3)n2)cc(N2CC(N3CCS(=O)(=O)CC3)C2)c1 [Compound 661, 1-(3,5-difluorophenyl)-N-[3-[3-(1,1-dioxo-1,4-thiazinan-4-yl)azetidin-1-yl]-5-methyl-phenyl]-1,2,4-triazol-3-amine]	10 to 100	1 to 10	–	–	–
Cc1cc(Nc2ncn(-c3ccccc3)n2)cc(N2CCN(CC(F)(F)F)CC2)c1 [Compound 398, N-[3-methyl-5-[4-(2,2,2-trifluoroethyl)piperazin-1-yl]phenyl]-1-phenyl-1,2,4-triazol-3-amine]	1000 to 10000	100 to 1000	–	–	–
Cc1cc(Nc2ncn(-c3cc(F)cc(F)c3)n2)nc(N2CC(C#N)C2)c1 [Compound 821, 1-[6-[[1-(3,5-difluorophenyl)-1,2,4-triazol-3-yl]amino]-4-methyl-2-pyridyl]azetidine-3-carbonitrile]	–	–	≤ 1	10 to 100	–
Cc1cc(Nc2ncn(-c3cnccn3)n2)cc(C2(C)CNC(=O)O2)c1 (stereo not drawn) [Compound 741, 5-methyl-5-[3-methyl-5-[(1-pyrazin-2-yl-1,2,4-triazol-3-yl)amino]phenyl]oxazolidin-2-one]	10 to 100	1 to 10	–	–	–
CN1CCN(c2cc(Nc3ncn(-c4cccc(F)c4)n3)cc(C(F)(F)F)c2)CC1 [Compound 257, 1-(3-fluorophenyl)-N-[3-(4-methylpiperazin-1-yl)-5-(trifluoromethyl)phenyl]-1,2,4-triazol-3-amine]	–	–	–	–	fold induction at 1 µM [3]: 100 to 1000; fold induction at 10 µM [4]: ≤ 1
Cc1cc(Nc2ncn(-c3cc(F)cc(F)c3)n2)cc(NC2CCOC(C)(C)C2)c1 (stereo not drawn) [Compound 970, N3-[1-(3,5-difluorophenyl)-1,2,4-triazol-3-yl]-N1-(2,2-dimethyltetrahydropyran-4-yl)-5-methyl-benzene-1,3-diamine]	–	–	10 to 100	≤ 1	–
COC[C@H](C)NC(=O)C1CN(c2cc(C)cc(Nc3ncn(-c4cc(F)cc(F)c4)n3)c2)C1 [Compound 584, 1-[3-[[1-(3,5-difluorophenyl)-1,2,4-triazol-3-yl]amino]-5-methyl-phenyl]-N-[(1S)-2-methoxy-1-methyl-ethyl]azetidine-3-carboxamide]	10 to 100	1 to 10	–	–	–
CNC(=O)c1cc(Nc2ncn(-c3cc(F)cc(F)c3)n2)nc(N2CCN(C3COC3)CC2)c1 [Compound 664, 2-[[1-(3,5-difluorophenyl)-1,2,4-triazol-3-yl]amino]-N-methyl-6-[4-(oxetan-3-yl)piperazin-1-yl]pyridine-4-carboxamide]	1 to 10	1 to 10	–	–	–
Fc1cc(Nc2ncn(-c3cc(F)cc(F)c3)n2)cc(NC2COC2)c1 [Compound 686, N3-[1-(3,5-difluorophenyl)-1,2,4-triazol-3-yl]-5-fluoro-N1-(oxetan-3-yl)benzene-1,3-diamine]	1 to 10	1 to 10	–	–	–
Cc1cc(Nc2ncn(-c3ccccc3)n2)cc(N2CCCC(C#N)C2)c1 (stereo not drawn) [Compound 146, 1-[3-methyl-5-[(1-phenyl-1,2,4-triazol-3-yl)amino]phenyl]piperidine-3-carbonitrile]	–	–	–	–	fold induction at 1 µM [3]: 1000 to 10000; fold induction at 10 µM [4]: 100 to 1000
Cc1cc(Nc2ncn(-c3cncc(F)c3)n2)cc(N2CCCC2)c1 [Compound 320, 1-(5-fluoro-3-pyridyl)-N-(3-methyl-5-pyrrolidin-1-yl-phenyl)-1,2,4-triazol-3-amine]	–	–	–	–	fold induction at 1 µM [3]: 10 to 100; fold induction at 10 µM [4]: 100 to 1000
Cc1cc(Nc2ncn(-c3ccccc3)n2)cc(N2C[C@@H]3C[C@H]2CN3C)c1 [Compound 479, N-[3-methyl-5-[(1S,4S)-5-methyl-2,5-diazabicyclo[2.2.1]heptan-2-yl]phenyl]-1-phenyl-1,2,4-triazol-3-amine]	100 to 1000	≤ 1	–	–	–
Cc1cc(Nc2ncn(-c3cc(F)cc(F)c3)n2)cc(NC(C)C2CC2)c1 (stereo not drawn) [Compound 1059, N1-(1-cyclopropylethyl)-N3-[1-(3,5-difluorophenyl)-1,2,4-triazol-3-yl]-5-methyl-benzene-1,3-diamine]	–	–	10 to 100	≤ 1	–
Cc1cc(CN2CCN(C3COC3)CC2)cc(Nc2ncn(-c3ccc(F)c(F)c3)n2)c1 [Compound 840, 1-(3,4-difluorophenyl)-N-[3-methyl-5-[[4-(oxetan-3-yl)piperazin-1-yl]methyl]phenyl]-1,2,4-triazol-3-amine]	–	–	10 to 100	10 to 100	–
Cc1cc(Nc2ncn(-c3cc(F)cc(F)c3)n2)nc(C2CCNCC2)c1 [Compound 744, N-[1-(3,5-difluorophenyl)-1,2,4-triazol-3-yl]-4-methyl-6-(4-piperidyl)pyridin-2-amine]	1 to 10	≤ 1	–	–	–
Cc1cc(Nc2ncn(-c3ccccc3)n2)cc(N2CCN(C(C)C)CC2)c1 [Compound 326, N-[3-(4-isopropylpiperazin-1-yl)-5-methyl-phenyl]-1-phenyl-1,2,4-triazol-3-amine]	–	–	–	–	fold induction at 1 µM [3]: 1000 to 10000; fold induction at 10 µM [4]: ≤ 1
Fc1cc(F)cc(-n2cnc(Nc3cc(C4=CCOCC4)nc(C4CC4)c3)n2)c1 [Compound 35, 2-cyclopropyl-N-[1-(3,5-difluorophenyl)-1,2,4-triazol-3-yl]-6-(3,6-dihydro-2H-pyran-4-yl)pyridin-4-amine]	–	–	–	–	fold induction at 1 µM [3]: 100 to 1000; fold induction at 10 µM [4]: 10 to 100
Cc1cc(Nc2ncn(-c3cc(F)cc(F)c3)n2)cc(N(C)CCN2CCOCC2)c1 [Compound 738, N3-[1-(3,5-difluorophenyl)-1,2,4-triazol-3-yl]-N1,5-dimethyl-N1-(2-morpholinoethyl)benzene-1,3-diamine]	10 to 100	≤ 1	–	–	–
Cc1cc(Nc2ncn(-c3cnccn3)n2)cc(N2CC3(C2)CN(C(C)C)C3)c1 [Compound 967, N-[3-(2-isopropyl-2,6-diazaspiro[3.3]heptan-6-yl)-5-methyl-phenyl]-1-pyrazin-2-yl-1,2,4-triazol-3-amine]	–	–	10 to 100	≤ 1	–
Cc1cc(Nc2ncn(-c3cc(F)cc(F)c3)n2)cc(N2CCC(CCO)CC2)c1 [Compound 874, 2-[1-[3-[[1-(3,5-difluorophenyl)-1,2,4-triazol-3-yl]amino]-5-methyl-phenyl]-4-piperidyl]ethanol]	–	–	10 to 100	≤ 1	–
Cc1cc(Nc2ncn(-c3cc(F)cc(F)c3)n2)cc(N2CCN(CCCN3CCCC3)CC2)c1 [Compound 945, 1-(3,5-difluorophenyl)-N-[3-methyl-5-[4-(3-pyrrolidin-1-ylpropyl)piperazin-1-yl]phenyl]-1,2,4-triazol-3-amine]	–	–	1 to 10	≤ 1	–
Cc1cc(Nc2ncn(-c3cc(F)cc(F)c3)n2)nc(OCC2COC2)c1 [Compound 1069, N-[1-(3,5-difluorophenyl)-1,2,4-triazol-3-yl]-4-methyl-6-(oxetan-3-ylmethoxy)pyridin-2-amine]	–	–	1 to 10	1 to 10	–
Cc1cc(Nc2ncn(-c3cc(F)cc(F)c3)n2)cc(OC2CCOC2)c1 (stereo not drawn) [Compound 703, 1-(3,5-difluorophenyl)-N-(3-methyl-5-tetrahydrofuran-3-yloxy-phenyl)-1,2,4-triazol-3-amine]	10 to 100	1 to 10	–	–	–
Cc1cc(Nc2ncn(-c3cncc(C)n3)n2)cc(N2CCN(C3COC3)CC2)c1 [Compound 271, N-[3-methyl-5-[4-(oxetan-3-yl)piperazin-1-yl]phenyl]-1-(6-methylpyrazin-2-yl)-1,2,4-triazol-3-amine]	–	–	–	–	fold induction at 1 µM [3]: ≤ 1; fold induction at 10 µM [4]: ≤ 1
Cc1cc(NC(=O)NC2CCC2)cc(Nc2ncn(-c3ccccc3)n2)c1 [Compound 910, 1-cyclobutyl-3-[3-methyl-5-[(1-phenyl-1,2,4-triazol-3-yl)amino]phenyl]urea]	–	–	1 to 10	10 to 100	–
CCC(O)CN1CCN(c2cc(C)cc(Nc3ncn(-c4cc(F)cc(F)c4)n3)c2)CC1 (stereo not drawn) [Compound 957, 1-[4-[3-[[1-(3,5-difluorophenyl)-1,2,4-triazol-3-yl]amino]-5-methyl-phenyl]piperazin-1-yl]butan-2-ol]	–	–	10 to 100	≤ 1	–
Fc1cc(Nc2ncn(-c3ccc(F)c(F)c3)n2)cc(N2CCN(C3COC3)CC2)c1 [Compound 803, 1-(3,4-difluorophenyl)-N-[3-fluoro-5-[4-(oxetan-3-yl)piperazin-1-yl]phenyl]-1,2,4-triazol-3-amine]	–	–	10 to 100	≤ 1	–
Fc1cc(F)cc(-n2cnc(Nc3cc(Cl)cc(N4CCN(C5COC5)CC4)c3)n2)c1 [Compound 5, N-[3-chloro-5-[4-(oxetan-3-yl)piperazin-1-yl]phenyl]-1-(3,5-difluorophenyl)-1,2,4-triazol-3-amine]	–	–	–	–	fold induction at 1 µM [3]: 1000 to 10000; fold induction at 10 µM [4]: ≤ 1
FC(F)(F)c1cc(Nc2ncn(-c3cnccn3)n2)cc(N2CCOCC2)c1 [Compound 357, N-[3-morpholino-5-(trifluoromethyl)phenyl]-1-pyrazin-2-yl-1,2,4-triazol-3-amine]	–	–	–	–	fold induction at 1 µM [3]: 1 to 10; fold induction at 10 µM [4]: 1 to 10

Reference: US10766869B2, “Triazoles for the treatment of demyelinating dieases” (Vertex Pharmaceuticals Incorporated, priority 2015, dated 2020)
